Experimental data as given in US5013743A, “Selective antibacterial agent against campytobacter” (Takeda Chemical Industries, Ltd., priority 1989, dated 1991).
In brackets after ≈: the same amount, converted by molar mass.

Assays:
C. pylori CLO 1 = experiment: MIC, agar-plate dilution method, test strain F; assay type: cell-based; conditions: Helicobacter pylori, CLO1, 72 h, Brucella agar, 37° C., 3 days
Protocol: (§1) The minimum inhibitory concentration (MIC) of each compound was determined by the agar-plate dilution method based on the standard method advocated by Japan Society of Chemotherapy [cf: Chemotherapy, Jan. '81, p. 76]. The volume of agar medium per plate was 20 ml. Each of the test compounds was dissolved in dimethylsulfoxide at a concentration of 80 mg/ml or 40 mg/ml, and diluted 10 times with sterile distilled water. Furthermore, the aqueous solution of 8 mg/ml or 4 mg/ml was diluted serially 2-fold with sterile distilled water. To 2 ml of the diluted solution was added 18 ml of Brucella agar (BBL Microbiology Systems, Becton Dickinson and Co., Cockeysville, Md. 21030) containing 7% defibrinated horse blood (manufactured by Nippon Bio-supp. Center) and mixed well. Test strains frozen at -80° C. in Brucella broth (BBL) containing 10% horse serum were thawed and inoculated on a Brucella agar slant medium containing 7% defibrinated horse blood. The medium was incubated anaerobically at 37° C. for 3 days in a jar containing a piece of sponge sufficiently impregnated with water and Campy Pak™ (BBL). The organisms grown on the slant medium were collected and suspended in a Brucella broth to correspond to the turbidity of about 10^8 CFU/ml of common bacteria. One platinum loop of inoculum was streaked on the medium plates for determination. The plates were incubated under the same conditions as described above.

C. pylori NCTC 11916 = experiment: MIC, agar-plate dilution method, test strain A; assay type: cell-based; conditions: Helicobacter pylori, NCTC11916, 72 h, Brucella agar, 37° C., 3 days
Protocol: as §1

C. pylori KS 13 = experiment: MIC, agar-plate dilution method, test strain E; assay type: cell-based; conditions: Helicobacter pylori, KS13, 72 h, Brucella agar, 37° C., 3 days
Protocol: as §1

C. pylori NCTC 11637 = experiment: MIC, agar-plate dilution method, test strain B; assay type: cell-based; conditions: Helicobacter pylori, NCTC11637, 72 h, Brucella agar, 37° C., 3 days
Protocol: as §1

C. pylori CLO 6 = experiment: MIC, agar-plate dilution method, test strain G; assay type: cell-based; conditions: Helicobacter pylori, CLO6, 72 h, Brucella agar, 37° C., 3 days
Protocol: as §1

C. pylori CPY 00111 = experiment: MIC, agar-plate dilution method, test strain D; assay type: cell-based; conditions: Helicobacter pylori, CPY00111, 72 h, Brucella agar, 37° C., 3 days
Protocol: as §1

C. pylori PCL 56 = experiment: MIC, agar-plate dilution method, test strain C; assay type: cell-based; conditions: Helicobacter pylori, PCL56, 72 h, Brucella agar, 37° C., 3 days
Protocol: as §1, with “above. […] The results are shown in Table 2 and Table 3. | C: C. pylori PCL 56” for “above.”

genus Campylobacter = experiment: Antibacterial activity against the genus Campylobacter (Tables 2 and 3, summary in words); assay type: cell-based, Campylobacter pylori; conditions: fluorinated alkyl derivatives vs other derivatives, Table 2 and Table 3
Protocol: as §1

| Structure (SMILES) | MIC (C. pylori CLO 1) | MIC (C. pylori NCTC 11916) | MIC (C. pylori KS 13) | MIC (C. pylori NCTC 11637) | MIC (C. pylori CLO 6) | MIC (C. pylori CPY 00111) | MIC (C. pylori PCL 56) | antibacterial activity compared with other derivatives (genus Campylobacter) |
| --- | --- | --- | --- | --- | --- | --- | --- | --- |
| Cc1c(OCC(F)(F)C(F)(F)F)ccnc1C[S+]([O-])c1nc2ccccc2[nH]1 (stereo not shown) [Compound 3] | 1.56 µg/mL (≈ 3.72 µM) | 3.13 µg/mL (≈ 7.46 µM) | 3.13 µg/mL (≈ 7.46 µM) | 6.25 µg/mL (≈ 14.9 µM) | 6.25 µg/mL (≈ 14.9 µM) | 3.13 µg/mL (≈ 7.46 µM) | 3.13 µg/mL (≈ 7.46 µM) | stronger antibacterial activity |
| Cc1c(OCC(F)(F)C(F)F)ccnc1C[S+]([O-])c1nc2ccccc2[nH]1 (stereo not shown) [Compound 4] | 0.78 µg/mL (≈ 1.94 µM) | 1.56 µg/mL (≈ 3.89 µM) | 1.56 µg/mL (≈ 3.89 µM) | 6.25 µg/mL (≈ 15.6 µM) | 6.25 µg/mL (≈ 15.6 µM) | 1.56 µg/mL (≈ 3.89 µM) | 6.25 µg/mL (≈ 15.6 µM) | stronger antibacterial activity |
| CC(C)COc1ccnc(CSc2nc3ccccc3[nH]2)c1 [Compound 7] | 12.5 µg/mL (≈ 39.9 µM) | 12.5 µg/mL (≈ 39.9 µM) | 12.5 µg/mL (≈ 39.9 µM) | 12.5 µg/mL (≈ 39.9 µM) | 12.5 µg/mL (≈ 39.9 µM) | 12.5 µg/mL (≈ 39.9 µM) | 12.5 µg/mL (≈ 39.9 µM) |  |
| CC(C)COc1ccnc(CSc2nc3cc(C(F)(F)F)ccc3[nH]2)c1 [Compound 8] | 12.5 µg/mL (≈ 32.8 µM) | 12.5 µg/mL (≈ 32.8 µM) | 12.5 µg/mL (≈ 32.8 µM) | 12.5 µg/mL (≈ 32.8 µM) | 12.5 µg/mL (≈ 32.8 µM) | 12.5 µg/mL (≈ 32.8 µM) | 12.5 µg/mL (≈ 32.8 µM) |  |
| CC(C)Oc1ccnc(CSc2nc3cc(C(F)(F)F)ccc3[nH]2)c1 [Compound 9] | 12.5 µg/mL (≈ 34 µM) | 12.5 µg/mL (≈ 34 µM) | 12.5 µg/mL (≈ 34 µM) | 12.5 µg/mL (≈ 34 µM) | 12.5 µg/mL (≈ 34 µM) | 12.5 µg/mL (≈ 34 µM) | 12.5 µg/mL (≈ 34 µM) |  |
| C=CCOc1ccnc(CSc2nc3cc(C(F)(F)F)ccc3[nH]2)c1 [Compound 10] | 25 µg/mL (≈ 68.4 µM) | 25 µg/mL (≈ 68.4 µM) | 25 µg/mL (≈ 68.4 µM) | 25 µg/mL (≈ 68.4 µM) | 25 µg/mL (≈ 68.4 µM) | 25 µg/mL (≈ 68.4 µM) | 25 µg/mL (≈ 68.4 µM) |  |
| C#CCOc1ccnc(CSc2nc3cc(C(F)(F)F)ccc3[nH]2)c1 [Compound 11] | 12.5 µg/mL (≈ 34.4 µM) | 12.5 µg/mL (≈ 34.4 µM) | 12.5 µg/mL (≈ 34.4 µM) | 12.5 µg/mL (≈ 34.4 µM) | 12.5 µg/mL (≈ 34.4 µM) | 12.5 µg/mL (≈ 34.4 µM) | 12.5 µg/mL (≈ 34.4 µM) |  |
| Cc1c(OCC(F)(F)C(F)F)ccnc1CSc1nc2ccccc2[nH]1 [Compound 12] | 1.56 µg/mL (≈ 4.05 µM) | 1.56 µg/mL (≈ 4.05 µM) | 1.56 µg/mL (≈ 4.05 µM) | 0.78 µg/mL (≈ 2.02 µM) | 0.78 µg/mL (≈ 2.02 µM) | 1.56 µg/mL (≈ 4.05 µM) | 1.56 µg/mL (≈ 4.05 µM) | stronger antibacterial activity |
| Cc1c(OCC(F)(F)C(F)(F)F)ccnc1CSc1nc2ccccc2[nH]1 [Compound 13] | 1.56 µg/mL (≈ 3.87 µM) | 1.56 µg/mL (≈ 3.87 µM) | 1.56 µg/mL (≈ 3.87 µM) | 1.56 µg/mL (≈ 3.87 µM) | 1.56 µg/mL (≈ 3.87 µM) | 1.56 µg/mL (≈ 3.87 µM) | 1.56 µg/mL (≈ 3.87 µM) | stronger antibacterial activity |
